Measured values: publication PMC12409578 (ACS Omega, 2025)
Entries after “also recorded” stand apart in the source; their conditions may differ.

Columns and labels:
[1] = molecular target: T1, AChE (from electric eel) (Electrophorus electricus, UniProt O42275); assay: biochemical; type: biochemical; details: for Ki: Lineweaver–Burk plots, mean ± SEM, read-out: AChE K I; for IC50: electric eel AChE, ATChI substrate, 37 °C, pH 8.0; for selectivity for AChE than for BChE (in words): from K I values / selectivity index
T1 construct: AChE (from electric eel); from tissue

[2] = molecular target: T2, BChE (from equine serum) (Equus caballus, UniProt P81908); assay: biochemical; details: for Ki: Lineweaver–Burk plots, mean ± SEM, read-out: BChE K I; for IC50: equine serum BChE, BChI substrate, 37 °C, pH 8.0
T2 construct: BChE (from equine serum); from tissue; host or cells: equine serum

[3] = MTT cytotoxicity test on HUVEC cell line; type: cell-based; details: human, HUVEC cells (healthy cell line)
Description: Cell culture studies were conducted using the previously mentioned method , and HUVEC (healthy cell line) was grown for this study. After the cells were grown, the maximum dose accepted as 100 μM drug concentration was applied to the cell line for all compounds, and cell viability was determined. , The results were illustrated in Table .
The cytotoxic effect of all compounds by MTT analysis was performed to determine the proliferation on the HUVEC cell line. The MTT [3-(4,5-dimethyl-2-thiazol)-2,5-diphenyl-2H-tetrazolium bromide] cytotoxicity assay was employed according to previous studies with minor modifications. −

T1 sequence (O42275 24-633): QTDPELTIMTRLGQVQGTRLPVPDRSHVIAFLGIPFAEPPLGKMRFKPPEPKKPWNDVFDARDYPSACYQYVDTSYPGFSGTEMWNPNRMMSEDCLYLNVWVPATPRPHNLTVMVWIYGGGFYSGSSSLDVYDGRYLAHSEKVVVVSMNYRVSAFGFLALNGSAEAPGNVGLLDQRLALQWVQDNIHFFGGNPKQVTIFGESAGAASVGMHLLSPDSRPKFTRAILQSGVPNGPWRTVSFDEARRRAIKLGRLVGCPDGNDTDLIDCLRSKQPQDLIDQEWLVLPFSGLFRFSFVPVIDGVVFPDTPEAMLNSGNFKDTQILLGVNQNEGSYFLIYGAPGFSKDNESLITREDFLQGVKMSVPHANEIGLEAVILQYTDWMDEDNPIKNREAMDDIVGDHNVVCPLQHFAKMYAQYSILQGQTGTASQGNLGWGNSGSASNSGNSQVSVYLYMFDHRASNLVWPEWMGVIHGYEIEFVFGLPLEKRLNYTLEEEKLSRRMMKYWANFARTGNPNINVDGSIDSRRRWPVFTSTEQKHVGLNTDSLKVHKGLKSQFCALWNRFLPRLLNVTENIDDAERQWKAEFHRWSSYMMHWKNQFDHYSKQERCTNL
T2 sequence (P81908 whole entry): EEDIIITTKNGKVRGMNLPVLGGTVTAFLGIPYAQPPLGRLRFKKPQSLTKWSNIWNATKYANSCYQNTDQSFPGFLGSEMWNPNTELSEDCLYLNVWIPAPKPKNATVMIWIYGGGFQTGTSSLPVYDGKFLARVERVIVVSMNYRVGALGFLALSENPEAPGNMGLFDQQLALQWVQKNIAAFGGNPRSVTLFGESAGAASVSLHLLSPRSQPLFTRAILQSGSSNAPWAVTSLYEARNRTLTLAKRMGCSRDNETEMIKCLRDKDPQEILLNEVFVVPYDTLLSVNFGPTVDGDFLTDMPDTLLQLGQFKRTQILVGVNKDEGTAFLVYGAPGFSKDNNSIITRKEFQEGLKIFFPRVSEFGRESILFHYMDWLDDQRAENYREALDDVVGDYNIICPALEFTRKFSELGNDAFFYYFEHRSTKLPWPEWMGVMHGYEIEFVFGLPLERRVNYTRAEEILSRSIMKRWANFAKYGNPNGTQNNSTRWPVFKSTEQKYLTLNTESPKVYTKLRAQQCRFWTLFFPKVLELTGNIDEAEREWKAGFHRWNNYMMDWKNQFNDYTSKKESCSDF

Structure (SMILES) | SI (selectivity index) = K I (AChE)/ K I (BChE) [1] | Ki [1] [nM] | IC50 [1] [µM] | selectivity for AChE than for BChE (in words) [1] | Ki [2] [nM] | IC50 [2] [µM] | viability at 24 h, 100 µM [3] [%]
COc1ccc(C2=NN(c3nc(-c4ccc(C#N)cc4)cs3)C(c3ccc(C)s3)C2)cc1OC (stereo not drawn) [Compound 3g, 2-[3-(3,4-Dimethoxyphenyl)-5-(5-methylthiophen-2-yl)-4,5-dihydro-1H-pyrazol-1-yl]-4-(4-cyanophenyl)thiazole] | 0.057 | 45 ± 2 | 0.338 | highest selectivity for AChE; also recorded: more significant selectivity | 789 ± 56 | 2.09 | 94
COc1ccc(-c2csc(N3N=C(c4ccc(OC)c(OC)c4)CC3c3ccc(C)s3)n2)cc1 (stereo not drawn) [Compound 3c, 2-[3-(3,4-Dimethoxyphenyl)-5-(5-methylthiophen-2-yl)-4,5-dihydro-1H-pyrazol-1-yl]-4-(4-methoxyphenyl)thiazole] | 1.016 | 1180 ± 83 | 4.81 | – | 1160 ± 62 | 3.07 | 97.2
COc1ccc(C2=NN(c3nc(-c4ccc(F)cc4)cs3)C(c3ccc(C)s3)C2)cc1OC (stereo not drawn) [Compound 3e, 2-[3-(3,4-Dimethoxyphenyl)-5-(5-methylthiophen-2-yl)-4,5-dihydro-1H-pyrazol-1-yl]-4-(4-fluorophenyl)thiazole] | 0.082 | 143 ± 84 | 0.385 | more significant selectivity | 1720 ± 150 | 3.32 | 118
COc1ccc(C2=NN(c3nc(-c4ccc(Cl)cc4Cl)cs3)C(c3ccc(C)s3)C2)cc1OC (stereo not drawn) [Compound 3h, 2-[3-(3,4-Dimethoxyphenyl)-5-(5-methylthiophen-2-yl)-4,5-dihydro-1H-pyrazol-1-yl]-4-(2,4-dichlorophenyl)thiazole] | 0.655 | 1100 ± 58 | 5.46 | – | 1690 ± 82 | 4.99 | 138
COc1ccc(C2=NN(c3nc(-c4ccc(C)cc4)cs3)C(c3ccc(C)s3)C2)cc1OC (stereo not drawn) [Compound 3b, 2-[3-(3,4-Dimethoxyphenyl)-5-(5-methylthiophen-2-yl)-4,5-dihydro-1H-pyrazol-1-yl]-4-(4-methylphenyl)thiazole] | 0.361 | 804 ± 62 | 4.01 | more significant selectivity | 2220 ± 132 | 4.15 | 133
COc1ccc(C2=NN(c3nc(-c4ccc(F)cc4F)cs3)C(c3ccc(C)s3)C2)cc1OC (stereo not drawn) [Compound 3i, 2-[3-(3,4-Dimethoxyphenyl)-5-(5-methylthiophen-2-yl)-4,5-dihydro-1H-pyrazol-1-yl]-4-(2,4-difluorophenyl)thiazole] | 0.332 | 529 ± 34 | 6.42 | – | 1590 ± 78 | 7.37 | 86.4
COc1ccc(C2=NN(c3nc(-c4ccc([N+](=O)[O-])cc4)cs3)C(c3ccc(C)s3)C2)cc1OC (stereo not drawn) [Compound 3f, 2-[3-(3,4-Dimethoxyphenyl)-5-(5-methylthiophen-2-yl)-4,5-dihydro-1H-pyrazol-1-yl]-4-(4-nitrophenyl)thiazole] | 0.039 | 57 ± 3 | 0.382 | highest selectivity for AChE; also recorded: more significant selectivity | 1460 ± 71 | 4.25 | 86
COc1ccc(C2=NN(c3nc(-c4cccc([N+](=O)[O-])c4)cs3)C(c3ccc(C)s3)C2)cc1OC (stereo not drawn) [Compound 3j, 2-[3-(3,4-Dimethoxyphenyl)-5-(5-methylthiophen-2-yl)-4,5-dihydro-1H-pyrazol-1-yl]-4-(3-nitrophenyl)thiazole] | 0.178 | 423 ± 23 | 4.03 | more significant selectivity | 2370 ± 114 | 4.92 | 102
COc1ccc(C2=NN(c3nc(-c4ccc(Cl)cc4)cs3)C(c3ccc(C)s3)C2)cc1OC (stereo not drawn) [Compound 3d, 2-[3-(3,4-Dimethoxyphenyl)-5-(5-methylthiophen-2-yl)-4,5-dihydro-1H-pyrazol-1-yl]-4-(4-chlorophenyl)thiazole] | 0.074 | 121 ± 7 | 0.523 | more significant selectivity | 1640 ± 85 | 6.03 | 126
COc1ccc(C2=NN(c3nc(-c4ccccc4)cs3)C(c3ccc(C)s3)C2)cc1OC (stereo not drawn) [Compound 3a, 2-[3-(3,4-Dimethoxyphenyl)-5-(5-methylthiophen-2-yl)-4,5-dihydro-1H-pyrazol-1-yl]-4-phenylthiazole] | 0.660 | 886 ± 54 | 2.85 | – | 1350 ± 83 | 4.3 | 99.2
